Patent US10344060B2 (priority 2013, dated 2019)

Assays:
Assay in all cases: cell-based
Type in all cases: cell-based
hNav1.4 [1] = target: T1, hNav1.4 (Homo sapiens, UniProt P35499); conditions: ratio of IonWorks Quattro IC50 values
hNav1.7 = hNav1.7 (Homo sapiens, UniProt Q15858); conditions: Table 12; PatchXpress, tonic block; read-out: PX hNav1.7 Tonic IC50
hNav1.4 [2] = target: T1, hNav1.4; conditions: Table 12; for IC50: PatchXpress, tonic block, read-out: PX hNav1.4 Tonic IC50; for Nav1.4/Nav1.7: ratio of PX tonic IC50 values

T1 sequence (P35499 whole entry): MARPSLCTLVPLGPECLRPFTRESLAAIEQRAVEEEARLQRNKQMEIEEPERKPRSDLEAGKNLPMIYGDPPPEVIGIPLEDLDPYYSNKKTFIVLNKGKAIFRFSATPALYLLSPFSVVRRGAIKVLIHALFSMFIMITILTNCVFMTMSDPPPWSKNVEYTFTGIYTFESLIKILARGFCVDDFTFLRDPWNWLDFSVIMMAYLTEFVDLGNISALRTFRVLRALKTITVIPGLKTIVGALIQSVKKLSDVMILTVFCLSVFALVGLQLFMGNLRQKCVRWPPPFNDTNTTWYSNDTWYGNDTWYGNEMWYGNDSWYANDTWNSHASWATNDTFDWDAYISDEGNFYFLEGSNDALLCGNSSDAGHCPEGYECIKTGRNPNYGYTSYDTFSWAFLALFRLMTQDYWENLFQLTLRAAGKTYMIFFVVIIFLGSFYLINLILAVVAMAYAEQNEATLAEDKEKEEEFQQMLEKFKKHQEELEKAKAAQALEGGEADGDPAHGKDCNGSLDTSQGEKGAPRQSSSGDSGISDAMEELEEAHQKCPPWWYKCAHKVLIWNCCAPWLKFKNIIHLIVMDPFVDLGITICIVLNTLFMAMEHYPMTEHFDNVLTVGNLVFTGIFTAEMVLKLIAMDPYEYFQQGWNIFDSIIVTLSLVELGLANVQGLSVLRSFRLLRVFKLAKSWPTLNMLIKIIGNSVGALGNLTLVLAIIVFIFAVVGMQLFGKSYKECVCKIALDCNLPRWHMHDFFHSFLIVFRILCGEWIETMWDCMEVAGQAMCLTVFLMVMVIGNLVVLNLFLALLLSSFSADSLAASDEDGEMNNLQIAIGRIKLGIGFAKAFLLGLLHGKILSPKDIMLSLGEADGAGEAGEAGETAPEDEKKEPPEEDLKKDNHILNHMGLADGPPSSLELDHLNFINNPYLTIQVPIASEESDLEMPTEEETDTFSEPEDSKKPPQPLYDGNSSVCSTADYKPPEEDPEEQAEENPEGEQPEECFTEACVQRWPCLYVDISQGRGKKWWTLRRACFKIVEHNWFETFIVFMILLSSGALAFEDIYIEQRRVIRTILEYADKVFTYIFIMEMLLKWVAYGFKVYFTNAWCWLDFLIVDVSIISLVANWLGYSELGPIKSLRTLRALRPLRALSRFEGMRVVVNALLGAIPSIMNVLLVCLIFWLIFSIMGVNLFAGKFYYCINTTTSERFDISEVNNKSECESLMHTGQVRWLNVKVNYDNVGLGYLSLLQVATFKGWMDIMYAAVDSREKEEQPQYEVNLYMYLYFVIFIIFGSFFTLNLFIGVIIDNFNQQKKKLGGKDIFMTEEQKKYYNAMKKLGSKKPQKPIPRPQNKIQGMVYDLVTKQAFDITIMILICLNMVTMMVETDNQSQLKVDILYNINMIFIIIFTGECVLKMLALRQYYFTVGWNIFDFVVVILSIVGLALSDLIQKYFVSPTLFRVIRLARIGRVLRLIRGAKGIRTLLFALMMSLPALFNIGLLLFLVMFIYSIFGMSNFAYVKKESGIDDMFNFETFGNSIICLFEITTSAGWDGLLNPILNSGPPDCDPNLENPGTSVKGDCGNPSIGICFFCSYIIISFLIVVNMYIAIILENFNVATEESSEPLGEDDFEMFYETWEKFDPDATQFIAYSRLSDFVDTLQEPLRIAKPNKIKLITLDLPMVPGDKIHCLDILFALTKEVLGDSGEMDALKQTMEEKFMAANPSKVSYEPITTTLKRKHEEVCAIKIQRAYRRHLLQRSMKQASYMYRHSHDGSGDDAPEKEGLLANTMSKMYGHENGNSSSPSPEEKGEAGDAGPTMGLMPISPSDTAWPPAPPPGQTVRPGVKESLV
Chain of hNav1.7 (Q15858 whole entry): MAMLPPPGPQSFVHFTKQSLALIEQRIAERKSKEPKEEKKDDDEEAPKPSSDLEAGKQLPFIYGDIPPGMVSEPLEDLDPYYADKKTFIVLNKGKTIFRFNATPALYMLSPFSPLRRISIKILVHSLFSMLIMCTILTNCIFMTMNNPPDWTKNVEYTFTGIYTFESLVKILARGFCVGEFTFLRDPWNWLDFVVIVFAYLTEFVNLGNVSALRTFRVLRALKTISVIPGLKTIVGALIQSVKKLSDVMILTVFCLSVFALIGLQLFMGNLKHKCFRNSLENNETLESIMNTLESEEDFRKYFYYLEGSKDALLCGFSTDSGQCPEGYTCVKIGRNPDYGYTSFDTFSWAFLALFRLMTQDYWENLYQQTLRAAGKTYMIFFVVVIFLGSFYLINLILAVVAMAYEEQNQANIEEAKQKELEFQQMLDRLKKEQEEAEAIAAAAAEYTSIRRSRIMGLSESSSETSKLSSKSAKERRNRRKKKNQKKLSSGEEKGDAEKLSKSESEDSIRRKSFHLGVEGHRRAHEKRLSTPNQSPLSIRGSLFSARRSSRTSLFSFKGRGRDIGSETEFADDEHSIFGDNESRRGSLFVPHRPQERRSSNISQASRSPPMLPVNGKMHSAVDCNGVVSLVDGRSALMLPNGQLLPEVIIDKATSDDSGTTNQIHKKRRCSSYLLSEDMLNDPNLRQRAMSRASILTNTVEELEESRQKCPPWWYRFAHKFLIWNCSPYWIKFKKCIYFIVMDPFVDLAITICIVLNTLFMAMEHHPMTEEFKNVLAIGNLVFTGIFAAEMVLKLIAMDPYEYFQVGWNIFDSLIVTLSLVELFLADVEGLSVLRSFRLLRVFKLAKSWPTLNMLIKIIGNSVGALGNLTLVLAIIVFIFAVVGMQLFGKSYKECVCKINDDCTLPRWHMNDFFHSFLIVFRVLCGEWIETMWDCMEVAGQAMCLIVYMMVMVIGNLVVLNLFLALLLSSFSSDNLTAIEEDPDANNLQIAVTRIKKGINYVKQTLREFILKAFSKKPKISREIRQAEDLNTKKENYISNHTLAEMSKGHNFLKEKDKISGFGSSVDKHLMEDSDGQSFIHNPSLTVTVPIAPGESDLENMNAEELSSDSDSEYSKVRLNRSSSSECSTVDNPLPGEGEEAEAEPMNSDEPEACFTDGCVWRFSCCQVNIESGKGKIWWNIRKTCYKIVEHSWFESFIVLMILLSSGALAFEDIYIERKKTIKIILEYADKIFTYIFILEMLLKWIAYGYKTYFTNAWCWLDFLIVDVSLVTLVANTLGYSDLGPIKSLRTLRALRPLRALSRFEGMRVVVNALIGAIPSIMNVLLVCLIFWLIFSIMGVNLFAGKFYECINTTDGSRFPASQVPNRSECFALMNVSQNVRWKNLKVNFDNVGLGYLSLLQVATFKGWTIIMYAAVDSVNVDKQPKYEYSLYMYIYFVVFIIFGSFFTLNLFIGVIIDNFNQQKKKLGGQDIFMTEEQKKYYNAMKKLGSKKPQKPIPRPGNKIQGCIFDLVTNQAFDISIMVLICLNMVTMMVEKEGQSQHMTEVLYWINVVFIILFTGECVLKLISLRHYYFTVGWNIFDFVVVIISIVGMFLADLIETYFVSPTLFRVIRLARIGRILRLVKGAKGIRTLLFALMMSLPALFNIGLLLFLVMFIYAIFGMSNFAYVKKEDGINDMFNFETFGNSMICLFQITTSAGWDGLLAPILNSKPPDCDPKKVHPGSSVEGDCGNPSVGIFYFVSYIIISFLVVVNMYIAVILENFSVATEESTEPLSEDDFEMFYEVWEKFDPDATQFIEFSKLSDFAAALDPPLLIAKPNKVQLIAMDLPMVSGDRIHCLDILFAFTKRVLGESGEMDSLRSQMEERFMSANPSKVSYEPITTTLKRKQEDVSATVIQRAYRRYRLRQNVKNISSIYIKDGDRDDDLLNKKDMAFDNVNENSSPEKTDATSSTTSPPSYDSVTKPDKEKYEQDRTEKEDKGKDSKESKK

CC[C@H](C)[C@H](NC(=O)[C@@H](NC(=O)[C@H](CCCCN)NC(=O)[C@H](CCCNC(=N)N)NC(=O)[C@@H]1CSSC[C@@H]2NC(=O)[C@H](C)NC(=O)[C@H](CCCNC(=N)N)NC(=O)[C@H](CCCCN)NC(=O)[C@H](CO)NC(=O)[C@H](CC(=O)O)NC(=O)[C@@H]3CSSC[C@H](NC(=O)[C@H](CCC(=O)O)NC(=O)[C@H](CC(C)C)NC(=O)CNC(=O)[C@H](CCC(=O)O)NC(=O)[C@H](CSSC[C@H](NC(=O)[C@@H](N)Cc4cn(CCCOCCOCCOCCOCCOCCOCCOCCOCCOCCOCCN)nn4)C(=O)N[C@@H](CCC(N)=O)C(=O)N[C@@H](CCCCN)C(=O)N[C@@H](Cc4c[nH]c5ccccc45)C(=O)N[C@@H](CCSC)C(=O)N[C@@H](Cc4c[nH]c5ccccc45)C(=O)N[C@@H]([C@@H](C)O)C(=O)N3)NC2=O)C(=O)N[C@@H](CCCCN)C(=O)N[C@@H](CC(C)C)C(=O)N[C@@H](Cc2c[nH]c3ccccc23)C(=O)N1)[C@@H](C)CC)C(N)=O [compound 165]
Nav1.4/Nav1.7 (hNav1.4 [1]; Table 9): 28

CC[C@H](C)[C@H](NC(=O)[C@@H](NC(=O)[C@H](CCCCN)NC(=O)[C@H](CCCNC(=N)N)NC(=O)[C@@H]1CSSC[C@@H]2NC(=O)[C@H](C)NC(=O)[C@H](CCCNC(=N)N)NC(=O)[C@H](CCCCN)NC(=O)[C@H](CO)NC(=O)[C@H](CC(=O)O)NC(=O)[C@@H]3CSSC[C@H](NC(=O)[C@H](CCC(=O)O)NC(=O)[C@H](CC(C)C)NC(=O)CNC(=O)[C@H](CCC(=O)O)NC(=O)[C@H](CSSC[C@H](NC(=O)[C@@H](N)Cc4ccc(O)cc4)C(=O)N[C@@H](CCC(N)=O)C(=O)N[C@@H](CCCCN)C(=O)N[C@@H](Cc4c[nH]c5ccccc45)C(=O)N[C@@H](CCSC)C(=O)N[C@@H](Cc4c[nH]c5ccccc45)C(=O)N[C@@H]([C@@H](C)O)C(=O)N3)NC2=O)C(=O)N[C@@H](CCCCN)C(=O)N[C@@H](Cc2cn(CCCOCCOCCOCCOCCOCCOCCOCCOCCOCCOCCN)nn2)C(=O)N[C@@H](Cc2c[nH]c3ccccc23)C(=O)N1)[C@@H](C)CC)C(N)=O [compound 183]
Nav1.4/Nav1.7 (hNav1.4 [1]; Table 9): 1

CC[C@H](C)[C@H](NC(=O)[C@@H](NC(=O)[C@H](CCCCN)NC(=O)[C@H](CCCNC(=N)N)NC(=O)[C@@H]1CSSC[C@@H]2NC(=O)[C@H](C)NC(=O)[C@H](CCCNC(=N)N)NC(=O)[C@H](CCCCN)NC(=O)[C@H](CO)NC(=O)[C@H](CC(=O)O)NC(=O)[C@@H]3CSSC[C@H](NC(=O)[C@H](CCCNC(=N)N)NC(=O)[C@H](CC(C)C)NC(=O)CNC(=O)[C@H](Cc4cccc5ccccc45)NC(=O)[C@H](CSSC[C@H](NC(=O)[C@@H](N)Cc4ccc(O)cc4)C(=O)N[C@@H](CCC(N)=O)C(=O)N[C@@H](CCCCN)C(=O)N[C@@H](Cc4c[nH]c5ccccc45)C(=O)N[C@@H](CCSC)C(=O)N[C@@H](Cc4c[nH]c5ccccc45)C(=O)N[C@@H]([C@@H](C)O)C(=O)N3)NC2=O)C(=O)N[C@@H](CCCCN)C(=O)N[C@@H](CC(C)C)C(=O)N[C@@H](Cc2c[nH]c3ccccc23)C(=O)N1)[C@@H](C)CC)C(N)=O [compound 37]
Nav1.4/Nav1.7 (hNav1.4 [1]; Table 6): 4

CC[C@H](C)[C@H](NC(=O)[C@H](Cc1cn(CCCOCCOCCOCCOCCOCCOCCOCCOCCOCCOCCN)nn1)NC(=O)[C@H](CCCCN)NC(=O)[C@H](CCCNC(=N)N)NC(=O)[C@@H]1CSSC[C@@H]2NC(=O)[C@H](C)NC(=O)[C@H](CCCNC(=N)N)NC(=O)[C@H](CCCCN)NC(=O)[C@H](CO)NC(=O)[C@H](CC(=O)O)NC(=O)[C@@H]3CSSC[C@H](NC(=O)[C@H](CCC(=O)O)NC(=O)[C@H](CC(C)C)NC(=O)CNC(=O)[C@H](CCC(=O)O)NC(=O)[C@H](CSSC[C@H](NC(=O)[C@@H](N)Cc4ccc(O)cc4)C(=O)N[C@@H](CCC(N)=O)C(=O)N[C@@H](CCCCN)C(=O)N[C@@H](Cc4c[nH]c5ccccc45)C(=O)N[C@@H](CCSC)C(=O)N[C@@H](Cc4c[nH]c5ccccc45)C(=O)N[C@@H]([C@@H](C)O)C(=O)N3)NC2=O)C(=O)N[C@@H](CCCCN)C(=O)N[C@@H](CC(C)C)C(=O)N[C@@H](Cc2c[nH]c3ccccc23)C(=O)N1)C(N)=O [compound 187]
Nav1.4/Nav1.7 (hNav1.4 [1]; Table 9): 3

CC[C@H](C)[C@H](NC(=O)[C@@H](NC(=O)[C@H](CCCCN)NC(=O)[C@H](CCCNC(=N)N)NC(=O)[C@@H]1CSSC[C@@H]2NC(=O)[C@H](C)NC(=O)[C@H](CCCNC(=N)N)NC(=O)[C@H](CCCCN)NC(=O)[C@H](CO)NC(=O)[C@H](CC(=O)O)NC(=O)[C@@H]3CSSC[C@H](NC(=O)[C@H](CCCNC(=N)N)NC(=O)[C@H](CC(C)C)NC(=O)CNC(=O)[C@H](CCC(=O)O)NC(=O)[C@H](CSSC[C@H](NC(=O)[C@@H](N)Cc4ccc(O)cc4)C(=O)N[C@@H](CCC(N)=O)C(=O)N[C@@H](CCCCN)C(=O)N[C@@H](Cc4c[nH]c5ccccc45)C(=O)N[C@@H](CCSC)C(=O)N[C@@H](Cc4c[nH]c5ccccc45)C(=O)N[C@@H]([C@@H](C)O)C(=O)N3)NC2=O)C(=O)N[C@@H](CCCCN)C(=O)N[C@@H](Cc2cccc3ccccc23)C(=O)N[C@@H](Cc2c[nH]c3ccccc23)C(=O)N1)[C@@H](C)CC)C(N)=O [compound 42]
Nav1.4/Nav1.7 (hNav1.4 [1]; Table 6): 3

CC[C@H](C)[C@H](NC(=O)[C@@H](NC(=O)[C@H](CCCCN)NC(=O)[C@H](CCCNC(=N)N)NC(=O)[C@@H]1CSSC[C@@H]2NC(=O)[C@H](C)NC(=O)[C@H](CCCNC(=N)N)NC(=O)[C@H](CCCCN)NC(=O)[C@H](CO)NC(=O)[C@H](CC(=O)O)NC(=O)[C@@H]3CSSC[C@H](NC(=O)[C@H](CCC(=O)O)NC(=O)[C@H](CC(C)C)NC(=O)CNC(=O)[C@H](Cc4cn(CCCOCCOCCOCCOCCOCCOCCOCCOCCOCCOCCN)nn4)NC(=O)[C@H](CSSC[C@H](NC(=O)[C@@H](N)Cc4ccc(O)cc4)C(=O)N[C@@H](CCC(N)=O)C(=O)N[C@@H](CCCCN)C(=O)N[C@@H](Cc4c[nH]c5ccccc45)C(=O)N[C@@H](CCSC)C(=O)N[C@@H](Cc4c[nH]c5ccccc45)C(=O)N[C@@H]([C@@H](C)O)C(=O)N3)NC2=O)C(=O)N[C@@H](CCCCN)C(=O)N[C@@H](CC(C)C)C(=O)N[C@@H](Cc2c[nH]c3ccccc23)C(=O)N1)[C@@H](C)CC)C(N)=O [compound 178]
Nav1.4/Nav1.7 (hNav1.4 [1]; Table 9): 28

C#CC[C@H](N)C(=O)N[C@@H](Cc1ccc(O)cc1)C(=O)N[C@H]1CSSC[C@@H]2NC(=O)[C@@H]3CSSC[C@@H](C(=O)N[C@@H](CCCNC(=N)N)C(=O)N[C@@H](CCCCN)C(=O)N[C@@H](CCC(=O)O)C(=O)N[C@H](C(=O)NCC(=O)O)[C@@H](C)CC)NC(=O)[C@H](Cc4c[nH]c5ccccc45)NC(=O)[C@H](CC(C)C)NC(=O)[C@H](CCCCN)NC(=O)[C@H](CSSC[C@H](NC(=O)[C@H]([C@@H](C)O)NC(=O)[C@H](Cc4c[nH]c5ccccc45)NC(=O)[C@H](CCCC)NC(=O)[C@H](Cc4c[nH]c5ccccc45)NC(=O)[C@H](CCCCN)NC(=O)[C@H](CCC(N)=O)NC1=O)C(=O)N[C@@H](CC(=O)O)C(=O)N[C@@H](CO)C(=O)N[C@@H](CCCCN)C(=O)N[C@@H](CCCNC(=N)N)C(=O)N[C@@H](C)C(=O)N3)NC(=O)[C@H](CCCNC(=N)N)NC(=O)[C@H](CC(C)C)NC(=O)CNC(=O)[C@H](CCC(=O)O)NC2=O [compound 828]
IC50 (hNav1.7): 8.34 nM
IC50 (hNav1.4 [2]): 1760 nM
Nav1.4/Nav1.7 (hNav1.4 [2]): 211

C#CC[C@@H]1NC(=O)[C@@H]2CSSC[C@H](NC(=O)[C@H](Cc3ccc(O)cc3)NC(=O)[C@@H](N)CC#N)C(=O)N[C@@H](CCC(N)=O)C(=O)N[C@@H](CCCCN)C(=O)N[C@@H](Cc3c[nH]c4ccccc34)C(=O)N[C@@H](CCCC)C(=O)N[C@@H](Cc3c[nH]c4ccccc34)C(=O)N[C@@H]([C@@H](C)O)C(=O)N[C@H]3CSSC[C@H](NC(=O)[C@H](CCCNC(=N)N)NC(=O)[C@H](CC(C)C)NC(=O)CNC1=O)C(=O)N[C@@H](CCCCN)C(=O)N[C@@H](CC(C)C)C(=O)N[C@@H](Cc1c[nH]c4ccccc14)C(=O)N[C@H](C(=O)N[C@@H](CCCNC(=N)N)C(=O)N[C@@H](CCCCN)C(=O)N[C@@H](CCC(=O)O)C(=O)N[C@@H](Cc1ccccc1)C(N)=O)CSSC[C@H](NC(=O)[C@H](C)NC(=O)[C@H](CCCNC(=N)N)NC(=O)[C@H](CCCCN)NC(=O)[C@H](CO)NC(=O)[C@H](CC(=O)O)NC3=O)C(=O)N2 [compound 876]
IC50 (hNav1.7): 1.09 nM
IC50 (hNav1.4 [2]): 72.1 nM
Nav1.4/Nav1.7 (hNav1.4 [2]): 66

C#CC[C@@H]1NC(=O)[C@@H]2CSSC[C@H](NC(=O)[C@H](Cc3ccc(O)cc3)NC(=O)[C@@H](N)CC#N)C(=O)N[C@@H](CCC(N)=O)C(=O)N[C@@H](CCCCN)C(=O)N[C@@H](Cc3c[nH]c4ccccc34)C(=O)N[C@@H](CCCC)C(=O)N[C@@H](Cc3c[nH]c4ccccc34)C(=O)N[C@@H]([C@@H](C)O)C(=O)N[C@H]3CSSC[C@H](NC(=O)[C@H](CCCNC(=N)N)NC(=O)[C@H](CC(C)C)NC(=O)CNC1=O)C(=O)N[C@@H](CCCCN)C(=O)N[C@@H](CC(C)C)C(=O)N[C@@H](Cc1c[nH]c4ccc(C)cc14)C(=O)N[C@H](C(=O)N[C@@H](CCCNC(=N)N)C(=O)N[C@@H](CCCCN)C(=O)N[C@@H](CCC(=O)O)C(=O)N[C@H](C(N)=O)[C@@H](C)CC)CSSC[C@H](NC(=O)[C@H](C)NC(=O)[C@H](CCCNC(=N)N)NC(=O)[C@H](CCCCN)NC(=O)[C@H](CO)NC(=O)[C@H](CC(=O)O)NC3=O)C(=O)N2 [compound 1662]
IC50 (hNav1.7): 0.52 nM
IC50 (hNav1.4 [2]): 89.8 nM
Nav1.4/Nav1.7 (hNav1.4 [2]): 172

C#CC[C@@H]1NC(=O)[C@@H]2CSSC[C@H](NC(=O)[C@H](CCC(=O)O)NC(=O)[C@@H](N)CC#N)C(=O)N[C@@H](CCC(N)=O)C(=O)N[C@@H](CCCCN)C(=O)N[C@@H](Cc3c[nH]c4ccccc34)C(=O)N[C@@H](CCCC)C(=O)N[C@@H](Cc3c[nH]c4ccccc34)C(=O)N[C@@H]([C@@H](C)O)C(=O)N[C@H]3CSSC[C@H](NC(=O)[C@H](CCCNC(=N)N)NC(=O)[C@H](CC(C)C)NC(=O)CNC1=O)C(=O)N[C@@H](CCCCN)C(=O)N[C@@H](CC(C)C)C(=O)N[C@@H](Cc1c[nH]c4ccccc14)C(=O)N[C@H](C(=O)N[C@@H](CCCNC(=N)N)C(=O)N[C@@H](CCCCN)C(=O)N[C@@H](CCC(=O)O)C(=O)N[C@@H](CC1CCCCC1)C(N)=O)CSSC[C@H](NC(=O)[C@H](C)NC(=O)[C@H](CCCNC(=N)N)NC(=O)[C@H](CCCCN)NC(=O)[C@H](CO)NC(=O)[C@H](CC(=O)O)NC3=O)C(=O)N2 [compound 866]
IC50 (hNav1.7): 0.321 nM
IC50 (hNav1.4 [2]): 37.6 nM
Nav1.4/Nav1.7 (hNav1.4 [2]): 117
